Data on three compounds can be found in US12582646B2, “Method for treating drug or alcohol dependency” (AETHER THERAPEUTICS INC., priority 2019, dated 2026).

Data set [1] deals with peripheral opioid receptors. Briefly: peripherally selective activity (internal results). In kind it is in vivo. An excerpt:
The invention embodies usage of any of these compounds or derivatives or metabolites thereof. […] In combinations, any opioid analgesic is a feasible component, embodied in the combination patents mentioned above. An example is a combination product of oxycodone or hydrocodone with 6beta-naltrexol.

The target of data set [2] is mu opioid receptor (Homo sapiens, UniProt P35372). The conditions noted are these: cited from earlier work.
Sequence of mu opioid receptor (Homo sapiens, UniProt P35372) (P35372 whole entry, species assumed): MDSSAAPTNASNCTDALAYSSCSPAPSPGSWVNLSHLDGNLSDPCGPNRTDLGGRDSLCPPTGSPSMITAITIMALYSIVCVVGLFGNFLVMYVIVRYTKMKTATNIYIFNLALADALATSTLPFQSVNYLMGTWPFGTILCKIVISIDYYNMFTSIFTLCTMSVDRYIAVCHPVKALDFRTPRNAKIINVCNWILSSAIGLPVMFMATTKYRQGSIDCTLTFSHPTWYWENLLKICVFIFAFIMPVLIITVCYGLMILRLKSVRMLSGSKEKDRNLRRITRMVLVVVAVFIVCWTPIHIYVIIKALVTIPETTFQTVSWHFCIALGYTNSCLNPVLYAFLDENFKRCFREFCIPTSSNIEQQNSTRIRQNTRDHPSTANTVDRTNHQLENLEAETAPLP
Data set [3] deals with opioid receptors. The conditions noted are these: acutely morphine-dependent mice; cited from earlier work.
For data set [4], the target named is T1, mu opioid receptor (Mus musculus, UniProt P42866).
T1 construct: from tissue; host or cells: living mice (whole-animal pharmacology)
T1 sequence (P42866 whole entry): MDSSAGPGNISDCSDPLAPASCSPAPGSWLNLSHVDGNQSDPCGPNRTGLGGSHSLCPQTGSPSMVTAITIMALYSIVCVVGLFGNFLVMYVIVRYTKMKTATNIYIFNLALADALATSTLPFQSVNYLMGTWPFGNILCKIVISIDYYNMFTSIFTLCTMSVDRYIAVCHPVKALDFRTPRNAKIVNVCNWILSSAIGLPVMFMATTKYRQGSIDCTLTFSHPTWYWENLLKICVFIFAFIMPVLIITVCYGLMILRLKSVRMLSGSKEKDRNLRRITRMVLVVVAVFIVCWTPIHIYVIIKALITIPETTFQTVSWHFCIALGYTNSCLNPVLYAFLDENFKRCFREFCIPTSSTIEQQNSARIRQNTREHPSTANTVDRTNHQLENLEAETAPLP
Kind of data set: internal unpublished: co-administration with morphine or methadone, subsequent opioid withdrawal, mice. The conditions noted are these: dose as low as 0.01 mg/kg given together with morphine or methadone. In kind it is in vivo. An excerpt: (§1) (See Corder G, Doolen S, Donahue R R, Winter M, Jutras B, He Y, Hu X, Wieskopf J S, Mogil J S, Storm D R, Wang Z J, McCarson K E, and Taylor B K, Constitutive μ-opioid receptor activity leads to long-term endogenous analgesia and dependence. Science 2013; 341,1394-1399; Corder G, Tawfik V L, Wang D, Sypek E I, Low S A, Dickinson J R, Sotoudeh C, Clark J D, Barres B A, Bohlen C J, Scherrer (2017). Loss of μ opioid receptor signaling in nociceptors, but not microglia, abrogates morphine tolerance without disrupting analgesia. Nat Med. 23:164-173; J. Oberdick, Y. L., M. A. Phelps, M. S. Yudovich, K. Schilling, and W. Sadee. Preferential delivery of an opioid antagonist to the fetal brain in pregnant mice. J. Pharmacol. Exp. Ther. 358: 22-30 (2016).

For data set [5], the system named is peripheral and central opioid receptors. The conditions noted are these: methadone maintenance subjects, single intravenous dose 0.5-1 mg; cited from earlier work.
The target of data set [6] is T1, mu opioid receptor. The conditions noted are these: 0.02 mg/kg co-injected s.c. with 20 mg/kg morphine for several days, juvenile mice; cited from earlier work.
Data set [7] in a line: oral bioavailability. In kind it is in vivo. The conditions noted are these: value assumed for oral dosing. How it is done:
This step applies to opioid use disorders. […] The recommended initial dose is 2 mg naltrexol orally (assuming ˜30% oral bioavailability; estimated dosage range 0.5-10 mg), once or twice daily for 2-4 days, followed by 6 mg once or twice daily for 4-8 days (estimated dosage range 2-20 mg twice daily). Step 1 is designed to suppress peripheral effects of the opioid drug with minimal peripheral withdrawal symptoms, and reverse at least partially opioid dependence.
Opioid antagonist maintenance with 6-beta-naltrexol may require 100 mg (dosage range 40-300 mg) per day orally (assuming 20-40% bioavailability). […] Ceasing opioid use altogether must be medically supervised for at least one year to determine the rate of recidivism.

For data set [8], the system named is peripheral and central opioid receptors. Briefly: intravenous 6beta-naltrexol in methadone maintenance subjects.
For data set [9], the system named is rats habituated to high alcohol consumption. The conditions noted are these: acute; cited from earlier work.
Data set [10] concerns mu opioid receptor. Briefly: internal unpublished: co-administration with morphine or methadone, subsequent opioid withdrawal, guinea pigs. The data set is classed as in vivo. The conditions noted are these: dose as low as 0.01 mg/kg given together with morphine or methadone.
Text: as §1

Data set [11] concerns the target peripheral and central opioid receptors. Kind of data set: blocking morphine iv effects (analgesia, slowing of bowel movement) in opioid naive subjects. In kind it is in vivo, humans. How it is done:
Recommended doses are 20 mg (range 10-80 mg) once or twice daily for 4-8 days, then 40 mg (range 20-120 mg) once or twice daily for 1-4 weeks, and if necessary, further escalation to 100 mg (range 40-300 mg) once or twice daily for maintenance. […] Dosing schedules can be facilitated by designing sustained release formulations as described in preceding incorporated patents.

The conditions of data set [12]: in vivo; cited from earlier work.
For data set [13], the system named is peripheral and central opioid receptors. The conditions noted are these: mice, given orally; cited from earlier work.
For data set [14], the system named is spontaneous opioid receptor activity. The conditions noted are these: opioid dependent mice, 24 hours after the last morphine dose; cited from earlier work.
Where [15] appears, read: 4 methadone replacement patients, IV doses up to 1 mg.

As to `CC(=O)N[C@@H]1CC[C@@]2(O)[C@H]3Cc4ccc(O)c5c4[C@@]2(CCN3CC2CC2)[C@@H]1O5` [6beta-naltrexamide], the peripherally selective activity result in data set [1] was “strong peripherally selective activity”. Besides, the “type of opioid antagonism” value in data set [2] is “neutral antagonism”.
Regarding `Oc1ccc2c3c1O[C@H]1[C@H](O)CC[C@@]4(O)[C@@H](C2)N(CC2CC2)CC[C@]314` [6beta-naltrexol], the “effect on naloxone induced withdrawal jumping” value in [3] was “prevent naloxone (inverse agonist) induced withdrawal jumping”. Moreover, the subsequent opioid withdrawal result in data set [4] is recorded as “reduces or prevents subsequent opioid withdrawal”. Further, in [5], the central withdrawal symptoms entry is reported as “no central withdrawal symptoms” and the “effect on opioid induced constipation” value is listed as “can reverse opioid induced constipation”. In addition, in [6], the “naloxone-withdrawal jumping after co-injection with morphine” value is reported as “significantly reduced”. Moreover, the oral bioavailability in data set [7] (listed as 6-beta-naltrexol) is recorded as 20-40%. In addition, in data set [7] (listed as naltrexol), the oral bioavailability was about 30%. Also, the “tolerated IV dose” value in data set [8] (4 methadone replacement patients sensitive to 0.05 mg naloxone i.v.) is “up to 1 mg”. In [8] (setting [15]), the bowel effect result is reported as “bowel movements” and the withdrawal symptoms entry is reported as “some additional peripheral, but no central, withdrawal symptoms”. Further, the “alcohol and sucrose intake” value in data set [9] was “prevents both alcohol and sucrose intake acutely, but only at high doses”. The subsequent opioid withdrawal entry in data set [10] is “reduces or prevents subsequent opioid withdrawal”. The “IC50 for blocking morphine induced slowing of bowel movement” value in data set [11] (iv) is reported as about 3 mg. In data set [11] (single dose of 20 mg iv, opioid naive subjects), the “block of analgesia caused by 10 mg morphine iv” value was “failed to block analgesia”. Also, the “half-life compared with typical opioid analgesics” value in data set [12] is “longer half-life”.
Turning to `O=C1CC[C@@]2(O)[C@H]3Cc4ccc(O)c5c4[C@@]2(CCN3CC2CC2)[C@H]1O5` [naltrexone], the “potency in blocking peripheral and central opioid analgesic effects” value in data set [13] is listed as “equally potent”. The “withdrawal elicited by the antagonist” value in [14] is recorded as “robust withdrawal”.
